Experimental data: ChEMBL document CHEMBL5230112, “Covalent inhibitors of GAPDH: From unspecific warheads to selective compounds” (Eur J Med Chem, 2020)

Legend:
[1] = molecular target: T1, Glyceraldehyde-3-phosphate dehydrogenase (Homo sapiens, UniProt P04406); experiment: Irreversible inhibition of GAPDH (unknown origin) assessed as ratio of Kinact/Ki
Target sequence in this assay (P04406 2-335 limits assumed): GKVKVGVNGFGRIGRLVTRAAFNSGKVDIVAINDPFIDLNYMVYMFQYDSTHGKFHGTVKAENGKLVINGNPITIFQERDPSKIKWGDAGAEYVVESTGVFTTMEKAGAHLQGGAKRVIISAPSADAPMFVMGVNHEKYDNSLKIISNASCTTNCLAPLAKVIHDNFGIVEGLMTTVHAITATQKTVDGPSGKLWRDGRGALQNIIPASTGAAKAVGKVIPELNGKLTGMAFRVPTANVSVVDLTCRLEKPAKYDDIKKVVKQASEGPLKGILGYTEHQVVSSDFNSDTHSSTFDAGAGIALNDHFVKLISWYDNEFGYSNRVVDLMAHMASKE

[2] = molecular target: T1, Glyceraldehyde-3-phosphate dehydrogenase; experiment: Inhibition of GAPDH (unknown origin) measured after 1 hr
Target sequence in this assay (P04406 whole entry): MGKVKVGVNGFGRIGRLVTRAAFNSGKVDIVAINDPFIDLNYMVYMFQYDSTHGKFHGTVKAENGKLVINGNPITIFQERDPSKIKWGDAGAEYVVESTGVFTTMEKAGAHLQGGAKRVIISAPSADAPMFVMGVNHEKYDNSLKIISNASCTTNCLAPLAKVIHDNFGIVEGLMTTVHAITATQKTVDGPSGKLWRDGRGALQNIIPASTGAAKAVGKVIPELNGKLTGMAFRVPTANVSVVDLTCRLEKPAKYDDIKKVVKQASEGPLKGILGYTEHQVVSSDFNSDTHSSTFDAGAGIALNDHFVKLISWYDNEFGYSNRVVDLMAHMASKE

[3] = molecular target: Glyceraldehyde-3-phosphate dehydrogenase (Oryctolagus cuniculus) (UniProt P46406); experiment: Inhibition of rabbit muscle GAPDH at 0.5 mM incubated for 24 hrs relative to control
Glyceraldehyde-3-phosphate dehydrogenase (Oryctolagus cuniculus), sequence (P46406 whole entry, looked up): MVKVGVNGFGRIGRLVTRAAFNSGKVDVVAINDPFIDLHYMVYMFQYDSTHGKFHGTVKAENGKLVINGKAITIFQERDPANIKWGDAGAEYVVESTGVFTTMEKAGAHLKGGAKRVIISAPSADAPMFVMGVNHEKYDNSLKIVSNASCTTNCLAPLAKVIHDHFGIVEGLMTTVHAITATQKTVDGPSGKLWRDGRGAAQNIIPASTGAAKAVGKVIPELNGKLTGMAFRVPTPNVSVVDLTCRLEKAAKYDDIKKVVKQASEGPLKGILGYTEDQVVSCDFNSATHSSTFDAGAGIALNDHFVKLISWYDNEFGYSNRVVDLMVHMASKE

Saccharomyces cerevisiae = experiment: Irreversible inhibition of yeast GAPDH holoenzyme
[4] = molecular target: T1, Glyceraldehyde-3-phosphate dehydrogenase; experiment: Irreversible inhibition of GAPDH (unknown origin) assessed as ratio of Kinact/Ki at slow phase
Target sequence in this assay (P04406 2-335 limits assumed): as the sequence (P04406 2-335 limits assumed) above

[5] = molecular target: T1, Glyceraldehyde-3-phosphate dehydrogenase; experiment: Irreversible inhibition of GAPDH (unknown origin) assessed as ratio of Kinact/Ki at fast phase
Target sequence in this assay (P04406 2-335 limits assumed): as above

[6] = molecular target: T1, Glyceraldehyde-3-phosphate dehydrogenase; experiment: Inhibition of human GAPDH
Target sequence in this assay (P04406 2-335 limits assumed): as above

C=CC(C)=O
Ratio [1]: 128 M⁻¹ s⁻¹

CCCCCC(O)/C=C/C=O (stereo not given) [4-HYDROXYNON-2-ENAL]
IC50 [2]: 50 µM

CCC(O)/C=C/C=O (stereo not given)
IC50 [2]: 39.1 µM

O=C(O)/C=C/C(=O)O
inhibition [3]: 20%

O=C(CCl)P(=O)(O)O
K (Saccharomyces cerevisiae): 2.8 10^4/M/s

COC(=O)/C=C/C(=O)OC
Ratio [4]: 10.9 M⁻¹ s⁻¹
Ratio [5]: 18.3 M⁻¹ s⁻¹

C=CC#N
Ratio [1]: 9.2 M⁻¹ s⁻¹

O=C(CBr)P(=O)(O)O
K [6]: 3.5 10^4/M/s
K (Saccharomyces cerevisiae): 5.4 10^4/M/s
